The source made the active and inactive calls. The rule behind the calls is not given here.
Assays:
[1] = system: HGC-27; assay: Antiproliferative activity against human HGC-27 cells assessed as inhibition of cell proliferation incubated for 48 hrs by MTT assay; format: functional, cell-based; details: HGC-27, 48 h
[2] = system: SGC-7901; assay: Antiproliferative activity against human SGC-7901 cells assessed as inhibition of cell proliferation incubated for 48 hrs by MTT assay; format: functional, cell-based; details: SGC-7901, 48 h
[3] = system: NCI-H1975; assay: Antiproliferative activity against human NCI-H1975 cells assessed as inhibition of cell proliferation incubated for 48 hrs by MTT assay; format: functional, cell-based; details: NCI-H1975, 48 h
[4] = system: MGC-803; assay: Antiproliferative activity against human MGC-803 cells assessed as cell viability at 1 to 2 nmol/L incubated for 48 hrs by MTT assay (reference value: 92 %); format: functional; details: dose 1-2 nmol/L, at 1 to 2 nM
[5] = target: T1, Tubulin (Homo sapiens) (UniProt P68371+Q9H4B7+P0DPH7+P68366+Q13509+Q71U36+P04350+Q3ZCM7+P07437+P68363+Q9BQE3+Q6PEY2+Q13885+Q9BVA1+Q9BUF5); assay: Inhibition of tubulin (unknown origin) polymerization assessed as decrease in fluorescence intensity at 3 micromol/L in the presence of GTP by fluorescence microplate reader; format: protein-complex assay; details: dose 3.0 µmol/L
[6] = target: Tubulin beta (Homo sapiens) (UniProt P68371+Q9H4B7+Q13509+P04350+Q3ZCM7+P07437+Q13885+Q9BVA1+Q9BUF5+A6NNZ2); assay: Competitive binding affinity to beta-tubulin colchicine binding site in human MGC-803 cells assessed as inhibition of EBI-beta-tubulin adduct band formation at 1 umol/L preincubated for 2 hrs followed by EBI addition and measured after 2 hrs by Western blotting analysis; format: cell-based; details: dose 1.0 µmol/L, time 4.0 hrs
[7] = target: T1, Tubulin (Homo sapiens); assay: Disruption of microtubule network in human MGC-803 cells assessed as reduction in filamentous microtubule structure formation at 0.25 to 2.0 nmol/L incubated for 24 hrs by DAPI staining based fluorescence microscopic analysis; format: cell-based; details: dose 0.25-2 nmol/L
[8] = target: T1, Tubulin (Homo sapiens); assay: Disruption of microtubule network in human HGC-27 cells assessed as appearance of multinucleation at 0.25 to 2.0 nmol/L incubated for 24 hrs by DAPI staining based fluorescence microscopic analysis; format: cell-based; details: dose 0.25-2 nmol/L
[9] = system: HGC-27; assay: Antiproliferative activity against human HGC-27 cells by MTT assay; format: functional, cell-based; details: dose 0.25-2 nmol/L
[10] = system: HGC-27; assay: Inhibition of colony formation in human HGC-27 cells incubated for 7 days by crystal violet staining based colony formation assay; format: functional, cell-based; details: dose 0.1-0.5 nmol/L, time 7.0 day
[11] = system: MGC-803; assay: Induction of cell cycle arrest in human MGC-803 cells assessed as accumulation of cells at G2/M phase incubated for 24 hrs by RNase A/propidium iodide staining based flow cytometric analysis; format: functional; details: dose 0.25-2 nmol/L
[12] = system: HGC-27; assay: Induction of cell cycle arrest in human HGC-27 cells assessed as accumulation of cells at G2/M phase incubated for 24 hrs by RNase A/propidium iodide staining based flow cytometric analysis; format: functional; details: dose 0.25-2 nmol/L
[13] = system: MGC-803; assay: Induction of cell cycle arrest in human MGC-803 cells assessed as downregulation of Cdc2 phosphorylation at Tyr15 residue measured after 48 hrs by Western blot analysis; format: functional, cell-based; details: dose 0.25-2 nmol/L
[14] = system: MGC-803; assay: Induction of cell cycle arrest in human MGC-803 cells assessed as downregulation of Cdc25c level measured after 48 hrs by Western blot analysis; format: functional, cell-based; details: dose 0.25-2 nmol/L
[15] = system: HGC-27; assay: Induction of cell cycle arrest in human HGC-27 cells assessed as downregulation of Cdc2 phosphorylation at Tyr15 residue measured after 48 hrs by Western blot analysis; format: functional, cell-based; details: dose 0.25-2 nmol/L
[16] = system: HGC-27; assay: Induction of cell cycle arrest at G2 phase in human HGC-27 cells assessed as downregulation of Cyclin B1 level at 0.25 to 2.0 nmol/L measured after 48 hrs by Western blot analysis; format: functional, cell-based; details: dose 0.25-2 nmol/L
[17] = system: HGC-27; assay: Induction of cell cycle arrest at G2 phase in human HGC-27 cells assessed as increase in p-Histone H3 level at 0.25 to 2.0 nmol/L measured after 48 hrs by Western blot analysis; format: functional, cell-based; details: dose 0.25-2 nmol/L
[18] = system: MGC-803; assay: Induction of apoptosis in human MGC-803 cells assessed as increase in nuclei brightness at 0.25 to 2.0 nmol/L incubated for 48 hrs by DAPI staining based analysis; format: functional, cell-based; details: dose 0.25-2 nmol/L
[19] = system: HGC-27; assay: Induction of apoptosis in human HGC-27 cells assessed as nuclei shrinkage at 0.25 to 2.0 nmol/L incubated for 48 hrs by DAPI staining based analysis; format: functional, cell-based; details: dose 0.25-2 nmol/L
[20] = system: HGC-27; assay: Induction of apoptosis in human HGC-27 cells assessed as increase in nuclei brightness at 0.25 to 2.0 nmol/L incubated for 48 hrs by DAPI staining based analysis; format: functional, cell-based; details: dose 0.25-2 nmol/L
[21] = system: MGC-803; assay: Induction of apoptosis in human MGC-803 cells assessed as downregulation of Bcl-2 expression incubated for 48 hrs by Western blotting analysis; format: functional, cell-based; details: dose 0.25-2 nmol/L
[22] = system: HGC-27; assay: Induction of apoptosis in human HGC-27 cells assessed as increase in cleaved Caspase-3 expression at 0.25 to 2.0 nmol/L incubated for 48 hrs by Western blotting analysis; format: functional, cell-based; details: dose 0.25-2 nmol/L
[23] = system: HGC-27; assay: Induction of apoptosis in human HGC-27 cells assessed as increase in cleaved Caspase-7 expression at 0.25 to 2.0 nmol/L incubated for 48 hrs by Western blotting analysis; format: functional, cell-based; details: dose 0.25-2 nmol/L
[24] = system: MGC-803; assay: Induction of apoptosis in human MGC-803 cells assessed as increase in cleaved Caspase-9 expression at 0.25 to 2.0 nmol/L incubated for 48 hrs by Western blotting analysis; format: functional, cell-based; details: dose 0.25-2 nmol/L
[25] = system: MGC-803; assay: Induction of apoptosis in human MGC-803 cells assessed as increase in cleaved Caspase-3 expression at 0.25 to 2.0 nmol/L incubated for 48 hrs by Western blotting analysis; format: functional, cell-based; details: dose 0.25-2 nmol/L
[26] = system: MGC-803; assay: Induction of apoptosis in human MGC-803 cells assessed as early apoptotic cells at 1.5 nmol/L incubated for 48 hrs by Annexin V-FITC/propidium iodide staining based flow cytometry analysis (reference value: 0.83 %); format: functional
[27] = system: HGC-27; assay: Induction of apoptosis in human HGC-27 cells assessed as early apoptotic cells at 0.5 nmol/L incubated for 48 hrs by Annexin V-FITC/propidium iodide staining based flow cytometry analysis (reference value: 2.04 %); format: functional
[28] = system: HGC-27; assay: Induction of apoptosis in human HGC-27 cells assessed as late apoptotic cells at 1.0 nmol/L incubated for 48 hrs by Annexin V-FITC/propidium iodide staining based flow cytometry analysis (reference value: 3.70 %); format: functional
[29] = system: HGC-27; assay: Induction of apoptosis in human HGC-27 cells assessed as total apoptotic rate at 2 nmol/L incubated for 48 hrs by Annexin V-FITC/propidium iodide staining based flow cytometry analysis relative to control; format: functional
[30] = system: MGC-803; assay: Induction of apoptosis in human MGC-803 cells incubated for 48 hrs by Annexin V-FITC/propidium iodide staining based flow cytometry analysis; format: functional, cell-based; details: dose 0.25-2 nmol/L
[31] = system: HUVEC; assay: Anti-angiogenesis activity in HUVEC cells assessed as reduction in cell viability by measuring survival rate at 2 nmol/L incubated for 48 hrs by MTT assay relative to control; format: functional; details: Homo sapiens, read-out: Survival
[32] = system: HUVEC; assay: Anti-migratory activity against HUVEC cells assessed as wound healing rate at 1 nmol/L measured after 24 hrs by wound healing assay (reference value: 97 %); format: functional, Homo sapiens
[33] = system: MGC-803; assay: Antitumor activity against human MGC-803 cells xenografted in female BALB/c-nu nude mouse assessed as increase in p-Histone H3 level in tumor at 5 mg/kg, po administrated every other day for 11 times and measured after 21 days by immunohistochemical analysis; format: functional, organism-based; details: time 21.0 day

Q: How did the IC50 [1] turn out when CN(c1ccc2c(ccn2C)c1)c1nc(N2CCCC2)nc2sccc12 was run?
A: 1.82 nM

Q: What about the IC50 [2] of the same compound?
A: 2.01 nM

Q: What about the IC50 [3] of the same compound?
A: 2.96 nM

Q: What about the Activity [4] of the same compound?
A: 39%

Q: And the inhibition [5]?
A: Active

Q: And the Activity [6]?
A: Active; Stronger Affinity Observed

Q: And the Activity [7]?
A: Active

Q: What about the Activity [8] of the same compound?
A: Active

Q: What about the Activity [9] of the same compound?
A: Dose-dependent-effect

Q: What about the inhibition [10] of the same compound?
A: Dose-dependent-effect

Q: What about the Activity [11] of the same compound?
A: Dose-dependent-effect

Q: What about the Activity [12] of the same compound?
A: Dose-dependent-effect

Q: And the Activity [13]?
A: Dose-dependent-effect

Q: What about the Activity [14] of the same compound?
A: Dose-dependent-effect

Q: And the Activity [15]?
A: Dose-dependent-effect

Q: What about the Activity [16] of the same compound?
A: Active

Q: What about the Activity [17] of the same compound?
A: Active

Q: What about the Activity [18] of the same compound?
A: Active

Q: And the Activity [19]?
A: Active

Q: What about the Activity [20] of the same compound?
A: Active

Q: What about the Activity [21] of the same compound?
A: Dose-dependent-effect

Q: What about the Activity [22] of the same compound?
A: Active

Q: What about the Activity [23] of the same compound?
A: Active

Q: And the Activity [24]?
A: Active

Q: What about the Activity [25] of the same compound?
A: Active

Q: What about the Activity [26] of the same compound?
A: 43.09%

Q: What about the Activity [27] of the same compound?
A: 4.64%

Q: What about the Activity [28] of the same compound?
A: 3.98%

Q: And the Activity [29]?
A: 20%

Q: What about the Activity [30] of the same compound?
A: Dose-dependent-effect

Q: And the viability at 0.002 µM [31]?
A: 28.3%

Q: And the Activity [32]?
A: 58%

Q: What about the Activity [33] of the same compound?
A: Active

Reference: ChEMBL document CHEMBL6103573, “Discovery of novel thienopyridine indole derivatives as inhibitors of tubulin polymerization targeting the colchicine-binding site with potent anticancer activities” (Eur J Med Chem, 2025)
